Laboratory results: patent US20240373829A1, “GENETIC RESISTANCE TO VIRAL DISEASE IN SALMONID FISH” (THE UNIVERSITY COURT OF THE UNIVERSITY OF EDINBURGH, priority 2021, published 2024)

Legend:
IPNV [1] = assay: IPNV viral load (VP2 qRT-PCR) in MLN4924-treated SHK-1 cells; assay type: cell-based, infectious pancreatic necrosis virus; settings: 100 nM MLN4924 24 hours prior to infection, during the course of infection, vs DMSO only
Procedure: To evaluate the viral load in cells, relative transcript level of IPNV VP2 to ef1a in the total RNAs was analysed by qRT-PCR using Luna Universal One-Step RT-qPCR reagent (NEB, Ipswich, USA) and LightCycler 480 Instrument (Roche, Basel, Switzerland) in duplicates. Each reaction consisted of 0.5 μL RNAs, 1× Reaction Mix, 1× Enzyme Mix, 0.4 μM each primer (Supplementary Table 4) and nuclease-free water up to 10 μL. The thermocycling initiated with reverse transcription at 55° C. for 10 min and initial denaturation at 95° C. for 1 min, followed by 40 cycles of denaturation at 95° C. for 10 sec and extension at 60° C. for 30 sec with plate read, and melt curve analysis. Efficiency and linearity (R^2) of each primer pair were checked using serial dilution of total RNAs in duplicates. The relative viral transcript level of IPNV VP2 versus ef1a in the KO SHK-1 cells compared to wild type SHK-1 cells at each timepoint was calculated using 2^−ΔΔCT.
Lyophilised MLN4924 (pevonedistat) was resuspended in DMSO. MLN4924 was titrated for cytotoxicity on CHSE-214 and SHK-1 cells. […] The impact of the MLN4924 on cell viability was assessed by sampling at 24, 48, 72, and 96 hpi and comparing cell survival in all challenged groups (including the DMSO control) versus the unchallenged control at the same timepoint.

IPNV viral proteins = assay: Western blot of IPNV viral proteins from MLN4924-treated SHK-1 cells; assay type: cell-based, infectious pancreatic necrosis virus; settings: SHK-1 cells treated with MLN4924 or DMSO, 120 h, MOI 0.01
Procedure: To evaluate the infectivity of viral output, cells and supernatant were harvested at 120 hpi and assessed by TCID50 on naïve CHSE-214 cells. For semi-quantification of viral protein output, western blot against viral proteins was performed. At 120 hpi, supernatant from a 150 mm dishes containing SHK-1 cells treated with either 100 nM MLN4924 or DMSO for 24 hours before infection with IPNV at an MOI of 0.01 was collected, sterile filtered, and ultra-centrifuged at 22000 x g for 1 hour. The ultra-centrifuged virus pellet from the supernatant was resuspended in Laemmli buffer. The cell-associated virus was also analysed by harvesting cells in Laemmli buffer. These samples were separated by PAGE (4-15% Mini-Protean, BIORAD), transferred onto nitrocellulose membrane, and the viral protein was visualised using a monoclonal antibody that recognises all IPN viral proteins, and secondary LICOR antibodies.

SHK-1 cells = assay: MLN4924 cell viability in SHK-1 cells; assay type: cell-based, Atlantic salmon; settings: MLN4924 treatment compared to DMSO-treated controls
Procedure: Lyophilised MLN4924 (pevonedistat) was resuspended in DMSO. MLN4924 was titrated for cytotoxicity on CHSE-214 and SHK-1 cells. SHK-1 or CHSE-214 cells were seeded at 80% confluency and treated with 0 (DMSO only), 100 nM, 1 μM or 5 μM MLN4924 for 24 hours prior to inoculation with IPNV at an MOI of 0.01. The impact of the MLN4924 on cell viability was assessed by sampling at 24, 48, 72, and 96 hpi and comparing cell survival in all challenged groups (including the DMSO control) versus the unchallenged control at the same timepoint.

RTG-2 cells = assay: MLN4924 cytotoxicity test (cell viability assay) in RTG-2 cells; assay type: cell-based, rainbow trout (Oncorhynchus mykiss); settings: wild type RTG-2 cells; 0.1, 1 and 5 uM; 24, 48, 72 and 96 hours post treatment
Procedure: Initially, four different concentrations of MLN4924 0 (DMSO-only), 0.1, 1 and 5 uM, were tested in fresh RTG-2 cells to investigate if they exerted toxicity in wild type RTG-2 cells. A cell viability assay was used to assess any present cytopathic effect at four different time points: 24, 48, 72 and 96 hours post treatment with the four different concentrations of the inhibitor.

IPNV [2] = assay: Supernatant infectivity assay (TCID50) of MLN4924 and IPNV-treated RTG-2 cells; assay type: cell-based, infectious pancreatic necrosis virus
Procedure: Wild type RTG-2 cells were seeded in 4× quadruplicates in 24-well plates and were allowed to settle for 24 hours. The four quadruplicates were then treated with DMSO-only, 0.1, 1 and 5 uM of MLN4924, respectively. 24 hours after the MLN4924 treatment, the inhibitor inoculum was removed and IPNV in a dose of 10-5 TCID50/mL was inoculated in the cells, along with the four doses of MLN4924. Supernatants were collected at 48 and 72 hpi, and were stored at −80° C. until use.
TCID50 (Median Tissue Culture Infectious Dose) assay was used to assess the titer of the viral supernatants, harvested from the MLN4924 and IPNV-treated cells at 72 hpi. Firstly, 20,000 cells/well were seeded in wells of a 96-well plate (in four rows of 10 wells for each supernatant, for 4 replicates) and were allowed to settle and grow overnight. The following day, the media was removed with a multichannel pipette and replaced with serial 10-fold dilutions (starting from the neat original viral supernatants up to 10^−7 dilution). The latter were prepared in 2% FBS media (with penicillin streptomycin). The seeded cells were inoculated with these serial dilutions (four replicates per virus dilution, 100 uL/96-well). The last two wells of each row were used as controls, meaning that no virus was added there, only media. The 96-well plate was incubated at 15° C. for the duration of the experiment. The Cytopathic Effect (CPE) of the viral infection was assessed using CellTiter-Glo® Luminescent Cell Viability Assay (Promega, Madison, USA), at 30 hpi. The 50% endpoint titer was further calculated using the Reed and Muench method^16.
MLN4924 inhibitor was used to inhibit nae1 activity. Four supernatants of each dose group collected from the MLN4924 and IPNV-treated cells at 72 hpi were tested in two independent TCID50 infectivity assays followed by a cell viability assay at 30 hpi and use of the Reed and Muench method to analyze the cytopathic effect present in the wells.

DNA and RNA viruses = settings: in vitro, multitude of DNA and RNA viruses (ref 15); cited from earlier work

NS(=O)(=O)OC[C@@H]1C[C@@H](n2ccc3c(N[C@H]4CCc5ccccc54)ncnc32)C[C@@H]1O [MLN4924]
IPNV RNA copy number (IPNV [1]): little difference | abundance of IPNV viral proteins (western blot) (IPNV viral proteins): notable decrease | cell viability (SHK-1 cells): no associated decrease in cell viability | cytotoxicity (cell viability assay) (RTG-2 cells): none of the doses were cytotoxic | productive IPNV viral output (TCID50) (IPNV [2]; 0.1 μM MLN4924, 72 hpi supernatants): effect similar to the DMSO-only cell group | productive IPNV viral output (TCID50) (IPNV [2]; 1 μM MLN4924, 72 hpi supernatants, vs DMSO-only): marked drop | productive IPNV viral output (TCID50) (IPNV [2]; 5 μM MLN4924, 72 hpi supernatants, vs DMSO-only): marked drop | anti-viral activity (DNA and RNA viruses): broad-acting anti-viral activity
